# Test results from patent publication US20230201174A1, “COMBINATION OF FINERENONE AND A SGLT2 INHIBITOR FOR THE TREATMENT AND/OR PREVENTION OF CARDIOVASCULAR AND/OR RENAL DISEASES” (BAYER AKTIENGESELLSCHAFT, priority 2020, published 2023).
# Legend:
# [1] = tested on: Wistar rats with activated renin-angiotensin-aldosterone system; assay: In vivo assay for detecting natriuretic activity in conscious rats with activated RAAS; design: species or system rat; conditions: for Urinary Glucose concentration / Urinary K+ concentration / Urinary Na+ concentration / Urinary Volume/ body weight: 24 h urine, mean ± SEM
# Procedure: Wistar rats (ca. 250-500 g body weight) were kept with free access to feed (Altromin) and drinking water. […] This sodium-reduced feed causes an activation of the RAAS in the animals during the 3 days run-in phase and therefore mimics a neuroendocrine activation which is characteristic for cardiorenal diseases. […] At the start of the test, the substance to be tested was administered by means of gavage in a volume of 2-3 ml/kg of body weight of a suitable solvent PEG400). Control animals received only solvent (‘S’ or solvent in table 2 below). Controls and substance tests were carried out in parallel on the same day. Control groups and substance-dose groups each consisted of 6 to 10 animals. During the test, the urine excreted by the animals was continuously collected in a receiver on the base of the cage.
# In this comparison, eight different administrations were performed (cf. groups A to H):
# Group A received the solvent (PEG400) only. This group serves as control group.
# Groups B, C and D received three increasing dosages of empagliflozin (SGLT2 inhibitor) only. It serves to detect the effects of the monotherapy with SGLT2 inhibitor.
# Group E received a finerenone only. It serves to detect the effect of the monotherapy with finerenone.
# Groups F, G and H received finerenone and the three doses of SGLT2 inhibitor in combination, respectively. It serves to detect the effect of the combined therapy with finerenone and empagliflozin (SGLT2 inhibitor) (combination according to the invention).
# (§1) After the treatment, the urinary volume, urinary glucose, urinary sodium and potassium concentrations were measured.
# [2] = tended to increase on day 1 after administration; cited from earlier work
# healthy volunteers = conditions: dose-dependently induced during the first 24 h; cited from earlier work
# [3] = tested on: hypertensive and proteinuric L-NAME treated renin-transgenic (mRen2)27 rats; assay: Non-diabetic cardiorenal rat model: L-NAME treated renin-transgenic (mRen2)27 rats; conditions: up to 7 weeks
# Procedure: Cardiorenal morbidity and mortality was studied in hypertensive and proteinuric L-NAME (20 mg/L) treated renin-transgenic (mRen2)27 rats. […] Key outcome parameters included mortality, blood pressure, proteinuria, kidney histology and gene expression.
# Female TGR(mRen2)27 renin rats aged 10 to 20 weeks are randomized to different pharmacological treatment groups and a placebo group. In addition, the nitrogen monoxide synthase inhibitor L-NAME is administered via the drinking water in a concentration of 20 to 100 mg/l. During the entire experiment, drinking water and feed are available ad libitum to the animals. The substances are administered via the feed or daily by gavage for 4-10 weeks. Animals treated in the same way but receiving either only the solvent or the feed without test substance serve as placebo group. During the experiment, the systolic blood pressure is determined at regular intervals using a tail cuff, and proteinuria (expressed as ratio of urinary protein concentration per urinary creatinine concentration) and urine electrolyte composition are determined by collecting the urine in metabolic cages, and mortality is registered on a daily base.
# The urine volume per collection time was determined separately for each animal, and the concentration of urinary glucose and electrolyte ions excreted in the urine was measured by standard methods by a clinical-chemical analyzer system (ADVIA 2400, Siemens). The urine was typically collected for 24 hours in metabolic cages.
# [4] = tested on: Zucker diabetic fatty (ZDF) rats; assay: In vivo assay for detecting natriuretic activity in chronically treated Zucker diabetic fatty rats; design: species or system rat; conditions: for Urinary Glucose concentration / Urinary K+ concentration / Urinary Na+ concentration / Urinary Volume/ body weight: Table 3, 24 h urine, mean ± SEM
# Excerpt: The Zucker diabetic fatty (ZDF) rat has a missense mutation in the gene coding the leptin receptor (fa/fa) and spontaneously develops insulin resistance, type 2 diabetes mellitus (T2DM), hyperlipidemia, moderate hypertension, and obesity, as well as progressive renal injury. Male homozygous animals develop diabetes mellitus from week 7 to 19 which is reflected in marked hyperglycemia. In addition to diabetic cardiac lesions (e.g. hypertrophy), renal pathology develops with proteinuria, mesangial expansion, macrophage infiltration, and interstitial fibrosis. Heterozygous animals are useful non-diabetic control animals since they develop neither obesity nor insulin resistance.
# Male 6-7 weeks old obese (fa/fa) Zucker rats (Charles River) were placed on a high energy diet (Purina Rodent LabDiet 5008, PMI Nutrition. Richmond. Ind.) and were randomized to treatment groups or solvent group when the animals were hyperglycemic. Rats (n=14-16/group) received either solvent [ethanol/Solutol/H2O (10/40/50)] or test compounds in solvent once daily applied to (fa/fa) animals for 4 to 12 weeks.
# During the experiment, the systolic blood pressure (determined by tail cuff), urine parameters (e.g. protein, glucose, electrolytes, creatinine, urea and uric acid) and blood plasma parameters (e.g. electrolytes, glucose, creatinine, urea and uric acid) were determined at regular intervals.
# Histopathology is performed with cardiac and renal tissue from animals of treatment groups and placebo groups.
# In this comparison, six different administrations were performed:
# Group A received the solvent [ethanol/Solutol/H2O (10/40/50)] only. This group serves as control group.
# Groups B and C received two increasing dosages of empagliflozin (SGLT2 inhibitor) only. It serves to detect the effects of the monotherapy with empagliflozin (SGLT2 inhibitor).
# Groups D and E received increasing dosages of finerenone only. It serves to detect the effect of the monotherapy with finerenone.
# Group F received a combination of the low dosages of empagliflozin (SGLT2 inhibitor) and finerenone, respectively. It serves to detect the effect of the combined therapy with finerenone and empagliflozin (SGLT2 inhibitor) (combination according to the invention).
# as §1
# [5] = Table 4, monotherapy 1 mg/kg oral
# [6] = Table 4, monotherapy 3 mg/kg oral
# [7] = Table 4, monotherapy 10 mg/kg oral
# [8] = Table 4 study, monotherapy 10 mg/kg
# [9] = Table 4 study, monotherapy: canagliflozin 1 and 3 mg/kg, finerenone 1 mg/kg
# [10] = Table 4 study, monotherapy: canagliflozin all doses (1, 3, 10 mg/kg), finerenone 1 mg/kg
# [11] = Table 5, monotherapy 0.03 mg/kg oral
# [12] = Table 5, monotherapy 0.3 mg/kg oral
# [13] = Table 5, monotherapy 3 mg/kg oral
# [14] = Table 5 study, monotherapy 3 mg/kg
# [15] = Table 5 study, monotherapy: dapagliflozin 0.03 and 0.3 mg/kg, finerenone 1 mg/kg
# [16] = Table 5 study, monotherapy: dapagliflozin all doses (0.03, 0.3, 3 mg/kg), finerenone 1 mg/kg
# [17] = Table 2, monotherapy 1 mg/kg oral
# [18] = Table 2 study, monotherapy: empagliflozin 1, 3, 10 mg/kg, finerenone 1 mg/kg
# [19] = Table 5, monotherapy 1 mg/kg oral
# [20] = ZDF rats treated 9 weeks, monotherapy 3 mg/kg
# [21] = ZDF rats treated 9 weeks, monotherapy 10 mg/kg
# [22] = ZDF rats, chronic monotherapy 3 and 10 mg/kg/day, 9 weeks
smiles,measurement,setting,value
"Cc1ccc([C@@H]2O[C@H](CO)[C@@H](O)[C@H](O)[C@H]2O)cc1Cc1ccc(-c2ccc(F)cc2)s1 [canagliflozin, (2S,3R,4R,5S,6R)-2-(3-{[5-(4-fluorophenyl)thiophen-2-yl]methyl}-4-methylphenyl)-6-(hydroxymethyl)oxane-3,4,5-triol]",Urinary Glucose concentration,[1]; [5],2.76 ± 0.36 mmol
same,Urinary K+ concentration,[1]; [5],1.86 ± 0.11 mmol
same,Urinary Na+ concentration,[1]; [5],0.15 ± 0.03 mmol
same,Urinary Volume/ body weight,[1]; [5],0.03108 ± 0.00317 L/kg
same,Urinary Glucose concentration,[1]; [6],6.94 ± 0.44 mmol
same,Urinary K+ concentration,[1]; [6],2.40 ± 0.17 mmol
same,Urinary Na+ concentration,[1]; [6],0.21 ± 0.05 mmol
same,Urinary Volume/ body weight,[1]; [6],0.04049 ± 0.00243 L/kg
same,Urinary Glucose concentration,[1]; [7],9.99 ± 0.46 mmol
same,Urinary K+ concentration,[1]; [7],2.36 ± 0.15 mmol
same,Urinary Na+ concentration,[1]; [7],0.41 ± 0.08 mmol
same,Urinary Volume/ body weight,[1]; [7],0.05583 ± 0.00352 L/kg
same,"influence on urinary sodium, in words",[1]; [8],increase
same,"influence on urinary volume, in words",[1]; [8],increase
same,"influence on urinary potassium, in words",[1]; [9],no influence
same,"influence on urinary sodium, in words",[1]; [9],no influence
same,"influence on urinary volume, in words",[1]; [9],no influence
same,"influence on urinary glucose, in words",[1]; [10],strong increase
same,"urinary Na+ excretion, in words",[2],returned to baseline from day 2 to 5
"CCOc1ccc(Cc2cc([C@@H]3O[C@H](CO)[C@@H](O)[C@H](O)[C@H]3O)ccc2Cl)cc1 [dapagliflozin, (2S,3R,4R,5S,6R)-2-[4-chloro-3-[(4-ethoxyphenyl)methyl]phenyl]-6-(hydroxymethyl)oxane-3,4,5-triol]",Urinary Glucose concentration,[1]; [11],0.72 ± 0.18 mmol
same,Urinary K+ concentration,[1]; [11],2.21 ± 0.16 mmol
same,Urinary Na+ concentration,[1]; [11],0.19 ± 0.05 mmol
same,Urinary Volume/ body weight,[1]; [11],0.03917 ± 0.00408 L/kg
same,Urinary Glucose concentration,[1]; [12],5.26 ± 0.29 mmol
same,Urinary K+ concentration,[1]; [12],2.43 ± 0.07 mmol
same,Urinary Na+ concentration,[1]; [12],0.19 ± 0.04 mmol
same,Urinary Volume/ body weight,[1]; [12],0.03884 ± 0.00394 L/kg
same,Urinary Glucose concentration,[1]; [13],9.71 ± 0.36 mmol
same,Urinary K+ concentration,[1]; [13],2.34 ± 0.10 mmol
same,Urinary Na+ concentration,[1]; [13],0.29 ± 0.05 mmol
same,Urinary Volume/ body weight,[1]; [13],0.04872 ± 0.00153 L/kg
same,"influence on urinary sodium, in words",[1]; [14],increase
same,"influence on urinary volume, in words",[1]; [14],increase
same,"influence on urinary potassium, in words",[1]; [15],no influence
same,"influence on urinary sodium, in words",[1]; [15],no influence
same,"influence on urinary volume, in words",[1]; [15],no influence
same,"influence on urinary glucose, in words",[1]; [16],strong increase
same,"natriuresis, in words",healthy volunteers,returned to baseline after 13 days of intervention
"CCOc1ncc(C)c2c1[C@H](c1ccc(C#N)cc1OC)C(C(N)=O)=C(C)N2 [finerenone, (S)-4-(4-cyano-2-methoxyphenyl)-5-ethoxy-2,8-dimethyl-1,4-dihydro-1,6-naphthyridin-3-carboxamide]",proteinuria reduction,[3]; 1 mg/kg once daily orally,−27%
same,proteinuria reduction,[3]; 3 mg/kg once daily orally,−87%
same,"renal histology parameters / renal lesions, in words",[3]; once daily orally,comparable protection from renal lesions at higher dosages
same,"systolic blood pressure, in words",[3]; once daily orally,significantly decreased
same,Urinary Glucose concentration,[1]; [17],b.d.l.
same,Urinary K+ concentration,[1]; [17],1.46 ± 0.12 mmol
same,Urinary Na+ concentration,[1]; [17],0.43 ± 0.03 mmol
same,Urinary Volume/ body weight,[1]; [17],0.0219 ± 0.00186 L/kg
same,"influence on urinary glucose, in words",[1]; [18],no influence
same,"influence on urinary potassium, in words",[1]; [18],no influence
same,"influence on urinary sodium, in words",[1]; [18],increase
same,"influence on urinary volume, in words",[1]; [18],no influence
same,Urinary Glucose concentration,[1]; [5],b.d.l.
same,Urinary K+ concentration,[1]; [5],1.76 ± 0.11 mmol
same,Urinary Na+ concentration,[1]; [5],0.27 ± 0.06 mmol
same,Urinary Volume/ body weight,[1]; [5],0.02932 ± 0.00294 L/kg
same,"influence on urinary potassium, in words",[1]; [9],no influence
same,"influence on urinary sodium, in words",[1]; [9],weak increase
same,"influence on urinary volume, in words",[1]; [9],no influence
same,"influence on urinary glucose, in words",[1]; [10],no influence
same,Urinary Glucose concentration,[1]; [19],b.d.l.
same,Urinary K+ concentration,[1]; [19],1.84 ± 0.10 mmol
same,Urinary Na+ concentration,[1]; [19],0.33 ± 0.43 mmol
same,Urinary Volume/ body weight,[1]; [19],0.02344 ± 0.00162 L/kg
same,"influence on urinary potassium, in words",[1]; [15],no influence
same,"influence on urinary sodium, in words",[1]; [15],increase
same,"influence on urinary volume, in words",[1]; [15],no influence
same,"influence on urinary glucose, in words",[1]; [16],no influence
same,Urinary Glucose concentration,[4]; [20],291.98 ± 19.11 mmol
same,Urinary K+ concentration,[4]; [20],1.94 ± 0.14 mmol
same,Urinary Na+ concentration,[4]; [20],1.39 ± 0.12 mmol
same,Urinary Volume/ body weight,[4]; [20],0.08184 ± 0.01199 L/kg
same,Urinary Glucose concentration,[4]; [21],272.62 ± 22.51 mmol
same,Urinary K+ concentration,[4]; [21],1.75 ± 0.06 mmol
same,Urinary Na+ concentration,[4]; [21],1.30 ± 0.08 mmol
same,Urinary Volume/ body weight,[4]; [21],0.05682 ± 0.00259 L/kg
same,urinary sodium excretion higher in comparison to solvent control group A,[4]; [20],20.1%
same,"influence on urinary glucose vs solvent, in words",[4]; [22],no influence
same,"influence on urinary potassium vs solvent, in words",[4]; [22],no influence
same,"influence on urinary sodium vs solvent, in words",[4]; [22],no influence
same,"influence on urinary volume vs solvent, in words",[4]; [22],no influence
